Measured values as given in US9958439B2, “Carbohydrate detection” (RICHTER LIFE SCIENCE DEVELOPMENT AB, priority 2012, dated 2018).
Read-outs that look alike come from different tables or passages of the source.

Tests used:
[1] = for RFU change (Correlation analysis) / RFU change (Signal deviation with increasing [Carbohydrate]) / λmax change: 3 μM probe; for RFU change (Correlation analysis): probe-specific excitation λ, emission 545 nm; for RFU change (Signal deviation with increasing [Carbohydrate]) / λmax change: spectral analysis, Excitation 300-500, Emission 545; for carbohydrate can be detected and/or differentiated by the LCO: conclusion from change in signal magnitude and/or shift in λmax; for Gradient Parameters (gradient of regression line) / Linear relationship / Quality of Gradient: linear regression
In short: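 Each LCO probe at 3 μM was added to two-fold serial dilutions of carbohydrate in dH2O (10–0.039 mg/ml for β-1,3-glucan, cellulose, chitin; 5–0.019 mg/ml for the others), run in triplicate. Excitation spectra were scanned 300–500 nm with emission at 545 nm. Detection was a reproducible λmax and/or RFU shift versus negative control, with linear regression of RFU against concentration.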

[2] = for RFU change (Correlation analysis): probe-specific excitation λ, emission 545 nm
In short: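 LCO probes at 3 μM mixed with serial two-fold dilutions of carbohydrate in dH2O (10–0.039 or 5–0.019 mg/ml, depending on carbohydrate), in triplicate. Excitation scanned 300–500 nm or fixed per probe (λmax or lowest background), emission at 545 nm. Detection taken as reproducible λmax/RFU shift vs no-carbohydrate control; RFU regressed linearly on concentration.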

[3] = In short: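 LCO probes at 3 μM mixed with serial two-fold carbohydrate dilutions in water (10–0.039 or 5–0.019 mg/ml), run in triplicate. Excitation scanned 300–500 nm with emission at 545 nm; detection based on reproducible λmax or RFU shift against the no-carbohydrate control, with linear regression of RFU on concentration.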
[4] = remark: listed apart in the source
In short: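 LCO probes (3 μM) were added to serial two-fold dilutions of carbohydrate suspensions in dH2O, with excitation scanned 300–500 nm and emission at 545 nm. Detection was a reproducible λmax and/or RFU change versus no-carbohydrate control. RFU was regressed linearly against concentration at the λmax or the lowest-background excitation.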

[5] = remark: listed apart in the source
In short: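 3 μM of each LCO probe was added to serial two-fold carbohydrate dilutions in water (10–0.039 or 5–0.019 mg/ml). Excitation spectra were scanned 300–500 nm with emission at 545 nm, in triplicate. Detection was defined as a reproducible shift in λmax and/or RFU versus negative control, with linear regression of RFU against concentration.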

[6] = for RFU change (Correlation analysis) / RFU change (Signal deviation with increasing [Carbohydrate]) / λmax change: 3 μM probe; for RFU change (Correlation analysis): probe-specific excitation λ, emission 545 nm; for RFU change (Signal deviation with increasing [Carbohydrate]) / λmax change: spectral analysis, Excitation 300-500, Emission 545
In short: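 LCO probes at 3 μM mixed with serial twofold carbohydrate dilutions in dH2O (10–0.039 or 5–0.019 mg/ml, depending on carbohydrate). Excitation scanned 300–500 nm, emission read at 545 nm; detection defined as reproducible shift in λmax and/or RFU relative to negative control, with linear regression of RFU against concentration.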

[7] = β-1,3-glucan concentration vs RFU
[8] = Cellulobiose 5-0.019 mg/ml, 3 μM probe, spectral analysis, Excitation 300-500, Emission 545
[9] = amylose concentration vs RFU, linear regression
[10] = cellulobiose concentration vs RFU, linear regression
[11] = glucose concentration vs RFU, linear regression
[12] = Sodium alginate 5-0.019 mg/ml, 3 μM probe, spectral analysis, Excitation 300-500, Emission 545
[13] = sodium alginate concentration vs RFU, linear regression
[14] = Chondroitin Sulfate A 5-0.019 mg/ml, 3 μM probe, spectral analysis, Excitation 300-500, Emission 545
[15] = Chondroitin Sulfate A concentration vs RFU, linear regression
[16] = glycogen concentration vs RFU, linear regression
[17] = heparin concentration vs RFU, linear regression

Cl.Cl.NCCc1cc(-c2cccs2)sc1-c1ccc(-c2sc(-c3cccs3)cc2CCN)s1 [pHTEA, penta Hydrogen Thiophene Ethanol Amine]
RFU change (Correlation analysis) ([1]; Cellulose 10-[…]): Increase | RFU change (Signal deviation with increasing [Carbohydrate]) ([1]; Cellulose 10-[…]): Increase | λmax change ([1]; Cellulose 10-[…]): Redshift | carbohydrate can be detected and/or differentiated by the LCO ([1]; Cellulose): can be detected and/or differentiated | RFU change (Correlation analysis) ([1]; Chitin 10-[…]): Decreases | RFU change (Signal deviation with increasing [Carbohydrate]) ([1]; Chitin 10-[…]): Decrease | λmax change ([1]; Chitin 10-[…]): Redshift | carbohydrate can be detected and/or differentiated by the LCO ([1]; Chitin): can be detected and/or differentiated | Gradient Parameters (gradient of regression line) ([1]; cellulose concentration vs RFU): 6001 ± 1187 | Linear relationship ([1]; cellulose concentration vs RFU): Significant | Quality of Gradient ([1]; cellulose concentration vs RFU): Positive | Gradient Parameters (gradient of regression line) ([1]; chitin concentration vs RFU): −9030 ± 110.1 | Linear relationship ([1]; chitin concentration vs RFU): Significant | Quality of Gradient ([1]; chitin concentration vs RFU): Negative | Sensitivity ([1]; to cellulose): Yes | Sensitivity ([1]; to chitin): Yes | Sensitivity ([1]; to β-1,3-glucan): Yes | carbohydrate can be detected and/or differentiated by the LCO ([1]; β-1,3-Glucan): can be detected and/or differentiated | RFU change (Correlation analysis) ([1]; β-1,3-glucan 10-[…]): Decrease | RFU change (Signal deviation with increasing [Carbohydrate]) ([1]; β-1,3-glucan 10-[…]): Decrease | λmax change ([1]; β-1,3-glucan 10-[…]): Redshift | Gradient Parameters (gradient of regression line) [1, 7]: −664.6 ± 206.2 | Quality of Gradient [1, 7]: Negative | RFU change (Correlation analysis) ([2]; Amylose 5-0.019 mg/ml, 3 μM probe): Decreases | RFU change (Signal deviation with increasing [Carbohydrate]) ([2]; Amylose 5-0.019 mg/ml, 3 μM probe, spectral analysis, Excitation 300-500, Emission 545): Decreases | carbohydrate can be detected and/or differentiated by the LCO ([2]; Amylose, conclusion from change in signal magnitude and/or shift in λmax): can be detected and/or differentiated | RFU change (Correlation analysis) ([2]; Cellulobiose 5-0.019 mg/ml, 3 μM probe): Unclear | RFU change (Signal deviation with increasing [Carbohydrate]) [2, 8]: Unclear | λmax change [2, 8]: No change | Gradient Parameters (gradient of regression line) [2, 9]: −6680 ± 1421 | Linear relationship [2, 9]: Significant | Quality of Gradient [2, 9]: Negative | Gradient Parameters (gradient of regression line) [2, 10]: 39.5 ± 66.5 | Quality of Gradient [2, 10]: Horizontal | Sensitivity ([2]; to amylose): Yes | Sensitivity ([2]; to cellulobiose): No | RFU change (Correlation analysis) ([3]; Glucose 5-0.019 mg/ml, 3 μM probe, probe-specific excitation λ, emission 545 nm): Unclear | RFU change (Signal deviation with increasing [Carbohydrate]) ([3]; Glucose 5-0.019 mg/ml, 3 μM probe, spectral analysis, Excitation 300-500, Emission 545): Increases | Gradient Parameters (gradient of regression line) [3, 11]: −67.4 ± 37.2 | Quality of Gradient [3, 11]: Horizontal | Sensitivity ([3]; to glucose): No | RFU change (Correlation analysis) ([4]; Sodium alginate 5-0.019 mg/ml, 3 μM probe, probe-specific excitation λ, emission 545 nm): Increases | RFU change (Signal deviation with increasing [Carbohydrate]) [4, 12]: Increases | λmax change [4, 12]: Redshift | carbohydrate can be detected and/or differentiated by the LCO ([4]; Sodium alginate, conclusion from change in signal magnitude and/or shift in λmax): can be detected and/or differentiated | Gradient Parameters (gradient of regression line) [4, 13]: 832.4 ± 174.5 | Linear relationship [4, 13]: Significant | Quality of Gradient [4, 13]: Positive | Sensitivity ([4]; to sodium alginate): Yes | RFU change (Correlation analysis) ([5]; Chondroitin Sulfate A 5-0.019 mg/ml, 3 μM probe, probe-specific excitation λ, emission 545 nm): Increases | RFU change (Signal deviation with increasing [Carbohydrate]) [5, 14]: Increases | λmax change [5, 14]: Redshift | Gradient Parameters (gradient of regression line) [5, 15]: 5989 ± 727 | Linear relationship [5, 15]: Significant | Quality of Gradient [5, 15]: Positive | carbohydrate can be detected and/or differentiated by the LCO ([5]; Chondroitin sulfate A, conclusion from change in signal magnitude and/or shift in λmax): can be detected and/or differentiated | Sensitivity ([5]; to Chondroitin Sulfate A): Yes | RFU change (Correlation analysis) ([6]; Glycogen 5-0.019 mg/ml): Decreases | RFU change (Signal deviation with increasing [Carbohydrate]) ([6]; Glycogen 5-0.019 mg/ml): Decreases | λmax change ([6]; Glycogen 5-0.019 mg/ml): Redshift | carbohydrate can be detected and/or differentiated by the LCO ([6]; Glycogen, conclusion from change in signal magnitude and/or shift in λmax): can be detected and/or differentiated | RFU change (Correlation analysis) ([6]; Heparin 5-0.019 mg/ml): Unclear | RFU change (Signal deviation with increasing [Carbohydrate]) ([6]; Heparin 5-0.019 mg/ml): Decreases | λmax change ([6]; Heparin 5-0.019 mg/ml): Redshift | Gradient Parameters (gradient of regression line) [6, 16]: −451 ± 328 | Quality of Gradient [6, 16]: Negative | Gradient Parameters (gradient of regression line) [6, 17]: −109.3 ± 248 | Linear relationship [6, 17]: Not Significant | Quality of Gradient [6, 17]: Horizontal | Sensitivity ([6]; to glycogen): Yes | Sensitivity ([6]; to heparin): No
